Reference: patent publication US20240343712A1, “SOLID-STATE FORMS OF 2-(3-(4-(1H-INDAZOL-5-YLAMINO)QUINAZOLIN-2-YL)PHENOXY)-N-ISOPROPYLACETAMIDE METHANE SULFONIC ACID SALT” (Sandoz AG, priority 2021, published 2024)

Key:
[1] = Gravimetric moisture sorption (GMS); assay type: physicochemical; conditions: (25 ± 0.1)° C.; for Comment (hygroscopicity / behaviour upon moisture contact) / Δm (0-80% RH): 0-80% RH; for Δm (0-80% RH): gravimetric moisture sorption
Procedure: Moisture sorption isotherms were recorded with an SPSx-1μ moisture sorption analyzer (ProUmid, Ulm). The measurement cycle was started at ambient relative humidity (RH) of 40%. Relative humidity was then decreased to 5% RH in 5% steps, followed by a further decrease to 3% RH and to 0% RH. Afterwards RH was increased from 0% to 90% in a sorption cycle and decreased to 0% in a desorption cycle in 5% steps. Finally RH was increased from 0 to 40% in 5% steps.
The time per step was set to a minimum of 2 hours and a maximum of 6 hours. If an equilibrium condition with a constant mass of +0.01% within 1 hour was reached before the maximum time for all examined samples the sequential humidity step was applied before the maximum time of 6 hours. If no equilibrium was achieved the consecutive humidity step was applied after the maximum time of 6 hours. The temperature was 25±0.1° C.

[2] = Thermogravimetric analysis (TGA); assay type: physicochemical; conditions: for stability against temperature stress: DSC and TGA, Examples 7 and 8
Procedure: TGA was performed on a Mettler TGA/DSC 1 instrument. The samples (5.15 mg Form I, 5.69 Form II, 3.97 mg Form HyA, and 8.55 mg Form HyB) were each heated in a 100 microliter aluminium pan closed with an aluminium lid from 25 to 300° C. at a rate of 10 K/min. The lid was automatically pierced at the beginning of the measurement. Nitrogen (purge rate 50 mL/min) was used as purge gas.

Row | SMILES | Comment (hygroscopicity / behaviour upon moisture contact) [1] | Δm (0-80% RH) [1] | stability against temperature stress [2] | other results
1 | CC(C)NC(=O)COc1cccc(-c2nc(Nc3ccc4[nH]ncc4c3)c3ccccc3n2)c1.CS(=O)(=O)O [Amorphous mesylate, 2-(3-(4-(1H-indazol-5-ylamino)quinazolin-2-yl)phenoxy)-N-isopropylacetamide methane sulfonic acid] | Very hygroscopic | +21.2 w % w-% |  | Comment (hygroscopicity / behaviour upon moisture contact) ([1]; listed as amorphous belumosudil mesylate): moderately hygroscopic
2 | CC(C)NC(=O)COc1cccc(-c2nc(Nc3ccc4[nH]ncc4c3)c3ccccc3n2)c1.CS(=O)(=O)O [Mesylate Form HyA, 2-(3-(4-(1H-indazol-5-ylamino)quinazolin-2-yl)phenoxy)-N-isopropylacetamide methane sulfonic acid] |  |  |  | Δm (0-130° C.), TGA mass loss ([2]; 0-130° C., 10 K/min, nitrogen): Δm (0-130° C.) = 5.97%, corresponds to a dihydrate; Relative humidity of dehydration (release of crystal water) [1]: Dehydration below 3% RH
3 | CC(C)NC(=O)COc1cccc(-c2nc(Nc3ccc4[nH]ncc4c3)c3ccccc3n2)c1.CS(=O)(=O)O [Mesylate Form HyB, 2-(3-(4-(1H-indazol-5-ylamino)quinazolin-2-yl)phenoxy)-N-isopropylacetamide methane sulfonic acid] |  |  |  | Δm (0-140° C.), TGA mass loss ([2]; 0-140° C., 10 K/min, nitrogen): Δm (0-140° C.) = 3.19%, corresponds to a monohydrate
4 | CC(C)NC(=O)COc1cccc(-c2nc(Nc3ccc4[nH]ncc4c3)c3ccccc3n2)c1.CS(=O)(=O)O [Mesylate Form II, 2-(3-(4-(1H-indazol-5-ylamino)quinazolin-2-yl)phenoxy)-N-isopropylacetamide methane sulfonic acid] | Slightly hygroscopic | +1.4 w-% | stable against temperature stress | Δm (0-100° C.), TGA mass loss ([2]; 0-100° C., 10 K/min, nitrogen): Δm (0-100° C.) = 0.32%, anhydrate; Comment (hygroscopicity / behaviour upon moisture contact) ([1]; listed as Form II): only slightly hygroscopic
5 | CC(C)NC(=O)COc1cccc(-c2nc(Nc3ccc4[nH]ncc4c3)c3ccccc3n2)c1.CS(=O)(=O)O [Mesylate Form I, 2-(3-(4-(1H-indazol-5-ylamino)quinazolin-2-yl)phenoxy)-N-isopropylacetamide methane sulfonic acid] | Slightly hygroscopic | +1.9 w-% | stable against temperature stress | Δm (0-250° C.), TGA mass loss ([2]; 0-250° C., 10 K/min, nitrogen): Δm (0-250° C.) = 0.87%, anhydrate; Comment (hygroscopicity / behaviour upon moisture contact) ([1]; listed as belumosudil mesylate Form I): only slightly hygroscopic
